Experimental data as given in patent EP2385948B1, “FUSED THIAZOLO AND OXAZOLO PYRIMIDINONES” (Torrent Pharmaceuticals Limited, priority 2009, dated 2011).
Structures can show the parent of a compound that is named as a salt.

System: erythropoietin
Experiment: In vitro erythropoietin induction (ELISA of cell culture supernatant)
Details: for fold induction at 200 µM: read-out: EPO fold induction, Hep3B cell line, 200 uM, 16 hours, relative to vehicle control; for EPO fold induction: Hep3B cell line, 16 hours, relative to vehicle control
Protocol: Hep3B cell line (ATCC HB8064) was employed. Induction of erythropoietin was carried out for the indicated dose of compounds for 16 hours duration. At the end of 16 hours, cell culture medium was collected and centrifuged to remove any debris. Supernatant obtained was analyzed for erythropoietin by ELISA (R&D systems, USA). The results were expressed as fold induction as compared to vehicle control.

CCCCc1ccc(C(=O)N2CCc3c(sc4nc(O)c(C(=O)NCC(=O)O)c(=O)n34)C2)cc1 [Compound 21, {[7-(4-Butyl-benzoyl)-2-hydroxy-4-oxo-5,6,7,8-tetrahydro-4H-9-thia-1,4a,7-triaza-fluorene-3-carbonyl]-amino}-acetic acid]
fold induction at 200 µM (Homo sapiens, Hep3B, 16 h): 9 to 16

CC1(C)CCc2c(sc3nc(O)c(C(=O)NC(C)(C)C(=O)O)c(=O)n23)C1 [Compound 54, 2-[(2-Hydroxy-7,7-dimethyl-4-oxo-5,6,7,8-tetrahydro-4H-9-thia-1,4a-diaza-fluorene-3-carbonyl)-amino]-2-methyl-propionic acid]
fold induction at 200 µM (Homo sapiens, Hep3B, 16 h): < 2

O=C(O)CNC(=O)c1c(O)nc2sc3c(n2c1=O)CCCCCC3 [Compound 38, [(2-Hydroxy-4-oxo-5,6,7,8,9,10-hexahydro-4H-11-thia-1,4a-diaza-cycloocta[a]indene-3-carbonyl)-amino]-acetic acid]
fold induction at 200 µM (Homo sapiens, Hep3B, 16 h): 9 to 16

O=C(O)CNC(=O)c1c(O)nc2sc3c(n2c1=O)CCN(S(=O)(=O)c1ccc(OC(F)(F)F)cc1)C3 [Compound 19, {[2-Hydroxy-4-oxo-7-(4-trifluoromethoxy-benzenesulfonyl)-5,6,7,8-tetrahydro-4H-9-thia-1,4a,7-triaza-fluorene-3-carbonyl]-amino}-acetic acid]
fold induction at 200 µM (Homo sapiens, Hep3B, 16 h): 2 to 4

O=C(O)CNC(=O)c1c(O)nc2sc3c(n2c1=O)CCS(=O)(=O)C3 [Compound 67, [(2-Hydroxy-4,7,7-trioxo-5,6,7,8-tetrahydro-4H-71ambda*6*,9-dithia-1,4a-diaza-fluorene-3-carbonyl)-amino]-acetic acid]
fold induction at 200 µM (Homo sapiens, Hep3B, 16 h): 2 to 4

CCOC(=O)N1CCc2c(sc3nc(O)c(C(=O)NCC(=O)O)c(=O)n23)C1 [Compound 2, 3-(Carboxymethyl-carbamoyl)-2-hydroxy-4-oxo-5,8-dihydro-4H,6H-9-thia-1,4a,7-triaza-fluorene-7-carboxylic acid ethyl ester]
fold induction at 200 µM (Homo sapiens, Hep3B, 16 h): 5 to 8

CC(C)S(=O)(=O)N1CCc2c(sc3nc(O)c(C(=O)NCC(=O)O)c(=O)n23)C1 [Compound 5, {[2-Hydroxy-4-oxo-7-(propane-2-sulfonyl)-5,6,7,8-tetrahydro-4H-9-thia-1,4a,7-triaza-fluorene-3-carbonyl]-amino}-acetic acid]
fold induction at 200 µM (Homo sapiens, Hep3B, 16 h): 2 to 4

CS(=O)(=O)c1ccc(C(=O)N2CCc3c(sc4nc(O)c(C(=O)NCC(=O)O)c(=O)n34)C2)cc1 [Compound 42, {[2-Hydroxy-7-(4-methanesulfonyl-benzoyl)-4-oxo-5,6,7,8-tetrahydro-4H-9-thia-1,4a,7-triaza-fluorene-3-carbonyl]-amino}-acetic acid]
fold induction at 200 µM (Homo sapiens, Hep3B, 16 h): 5 to 8

O=C(O)CNC(=O)c1c(O)nc2sc3c(n2c1=O)CCC1(CC1)C3 [Compound 70, N-[(2'-hydroxy-4'-oxo-6',9'-dihydro-4'H,7'H-spiro[cyclopropane-1,8'-pyrimido[2,1-b][1,3]benzothiazol]-3'-yl)carbonyl]glycine]
fold induction at 200 µM (Homo sapiens, Hep3B, 16 h): 2 to 4

O=C(O)CNC(=O)c1c(O)nc2sc3c(n2c1=O)CCOC3 [Compound 65, [(2-Hydroxy-4-oxo-5,8-dihydro-4H,6H-7-oxa-9-thia-1,4a-diaza-fluorene-3-carbonyl)-amino]-acetic acid]
fold induction at 200 µM (Homo sapiens, Hep3B, 16 h): 5 to 8

CC(C)[C@H](NC(=O)c1c(O)nc2sc3c(n2c1=O)CCC(C)(C)C3)C(=O)O [Compound 43, 2-[(2-Hydroxy-7,7-dimethyl-4-oxo-5,6,7,8-tetrahydro-4H-9-thia-1,4a-diaza-fluorene-3-carbonyl)-amino]-3-methyl-butyric acid (L-isomer)]
fold induction at 200 µM (Homo sapiens, Hep3B, 16 h): < 2

O=C(O)CNC(=O)c1c(O)nc2sc3c(n2c1=O)CCN(C(=O)c1ccc(Cl)nc1)C3 [Compound 33, {[7-(6-Chloro-pyridine-3-carbonyl)-2-hydroxy-4-oxo-5,6,7,8-tetrahydro-4H-9-thia-1,4a,7-triaza-fluorene-3-carbonyl]-amino}-acetic acid]
fold induction at 200 µM (Homo sapiens, Hep3B, 16 h): 2 to 4

O=C(O)CNC(=O)c1c(O)nc2sc3c(n2c1=O)CCN(Cc1cc(C(F)(F)F)cc(C(F)(F)F)c1)C3 [Compound 46, {[7-(3,5-Bis-trifluoromethyl-benzyl)-2-hydroxy-4-oxo-5,6,7,8-tetrahydro-4H-9-thia-1,4a,7-triaza-fluorene-3-carbonyl]-amino}-acetic acid]
fold induction at 50 µM (Homo sapiens, Hep3B, 16 h, read-out: EPO fold induction, Hep3B cell line, 50 uM, 16 hours, relative to vehicle control): 2 to 4

COc1ccc(C(=O)N2CCc3c(sc4nc(O)c(C(=O)NCC(=O)O)c(=O)n34)C2)cc1Cl [Compound 37, {[7-(3-Chloro-4-methoxy-benzoyl)-2-hydroxy-4-oxo-5,6,7,8-tetrahydro-4H-9-thia-1,4a,7-triaza-fluorene-3-carbonyl]-amino}-acetic acid]
fold induction at 200 µM (Homo sapiens, Hep3B, 16 h): 5 to 8

O=C(O)CNC(=O)c1c(O)nc2sc3c(n2c1=O)CCN(C(=O)CC1CCCC1)C3 [Compound 29, {[7-(2-Cyclopentyl-acetyl)-2-hydroxy-4-oxo-5,6,7,8-tetrahydro-4H-9-thia-1,4a,7-triaza-fluorene-3-carbonyl]-amino}-acetic acid]
fold induction at 200 µM (Homo sapiens, Hep3B, 16 h): 9 to 16

O=C([O-])CNC(=O)c1c(O)nc2sc3c(n2c1=O)CCCC3.[Na+]
EPO fold induction (50 uM): ++ (++ indicates 2-4 fold)

CC1(C)CCc2c(sc3nc(O)c(C(=O)N[C@H](C(=O)O)c4ccccc4)c(=O)n23)C1 [Compound 55, [(2-Hydroxy-7,7-dimethyl-4-oxo-5,6,7,8-tetrahydro-4H-9-thia-1,4a-diaza-fluorene-3-carbonyl)-amino]-phenyl-acetic acid, L-isomer]
fold induction at 200 µM (Homo sapiens, Hep3B, 16 h): < 2

O=C(O)CNC(=O)c1c(O)nc2oc3c(n2c1=O)CCCC3 [Compound 57, [(2-Hydroxy-4-oxo-5,6,7,8-tetrahydro-4H-9-oxa-1,4a-diaza-fluorene-3-carbonyl)-amino]-acetic acid]
fold induction at 200 µM (Homo sapiens, Hep3B, 16 h): < 2

O=C(O)CNC(=O)c1c(O)nc2sc3c(n2c1=O)CCC(C(=O)O)C3 (stereo not shown) [Compound 72, 3-(Carboxymethyl-carbamoyl)-2-hydroxy-4-oxo-5,6,7,8-tetrahydro-4H-9-thia-1,4a-diaza-fluorene-7-carboxylic acid]
fold induction at 200 µM (Homo sapiens, Hep3B, 16 h): < 2

O=C(O)CNC(=O)c1c(O)nc2sc3c(n2c1=O)CCC(c1ccccc1)C3 (stereo not shown) [Compound 64, [(2-Hydroxy-4-oxo-7-phenyl-5,6,7,8-tetrahydro-4H-9-thia-1,4a-diaza-fluorene-3-carbonyl)-amino]-acetic acid]
fold induction at 200 µM (Homo sapiens, Hep3B, 16 h): < 2

O=C(O)CNC(=O)c1c(O)nc2sc3c(n2c1=O)CCC(NC(=O)c1ccccc1)C3 (stereo not shown) [Compound 56, [(7-Benzoylamino-2-hydroxy-4-oxo-5,6,7,8-tetrahydro-4H-9-thia-1,4a-diaza-fluorene-3-carbonyl)-amino]-acetic acid]
fold induction at 200 µM (Homo sapiens, Hep3B, 16 h): < 2

CCCC1CCc2c(sc3nc(O)c(C(=O)NCC(=O)O)c(=O)n23)C1 (stereo not shown) [Compound 59, [(2-Hydroxy-4-oxo-7-propyl-5,6,7,8-tetrahydro-4H-9-thia-1,4a-diaza-fluorene-3-carbonyl)-amino]-acetic acid]
fold induction at 200 µM (Homo sapiens, Hep3B, 16 h): < 2

CC(C)NC(=S)N1CCc2c(sc3nc(O)c(C(=O)NCC(=O)O)c(=O)n23)C1 [Compound 25, [(2-Hydroxy-7-isopropylthiocarbamoyl-4-oxo-5,6,7,8-tetrahydro-4H-9-thia-1,4a,7-triaza-fluorene-3-carbonyl)-amino]-acetic acid]
fold induction at 200 µM (Homo sapiens, Hep3B, 16 h): 2 to 4

{[7-(3,5-Dimethoxy-benzoyl)-2-hydroxy-4-oxo-5,6,7,8-tetrahydro-4H-9-thia-1,4a,7-triaza-fluorene-3-carbonyl]-amino}-acetic acid [Compound 41]
EPO fold induction (200 uM): ++ (++ indicates 2-4 fold)

O=C(O)CCNC(=O)c1c(O)nc2sc3c(n2c1=O)CCC3 [Compound 14, 3-[(2-Hydroxy-4-oxo-7,8-dihydro-4H,6H-cyclopenta[4,5]thiazolo[3,2-a]pyrimidine-3-carbonyl)-amino]-propionic acid]
fold induction at 200 µM (Homo sapiens, Hep3B, 16 h): 2 to 4

CCC1(CC)CCc2c(sc3nc(O)c(C(=O)NCC(=O)O)c(=O)n23)C1 [Compound 53, [(7,7-Diethyl-2-hydroxy-4-oxo-5,6,7,8-tetrahydro-4H-9-thia-1,4a-diaza-fluorene-3-carbonyl)-amino]-acetic acid]
fold induction at 200 µM (Homo sapiens, Hep3B, 16 h): < 2

O=C(O)CNC(=O)c1c(O)nc2sc3c(n2c1=O)CCN(C(=O)c1ccc(OC(F)(F)F)cc1)C3 [Compound 22, {[2-Hydroxy-4-oxo-7-(4-trifluoromethoxy-benzoyl)-5,6,7,8-tetrahydro-4H-9-thia-1,4a,7-triaza-fluorene-3-carbonyl]-amino}-acetic acid]
fold induction at 200 µM (Homo sapiens, Hep3B, 16 h): 5 to 8

O=C(O)CNC(=O)c1c(O)nc2sc3c(n2c1=O)CCN(Cc1ccc2c(c1)CCC2)C3 [Compound 39, [(2-Hydroxy-7-indan-5-ylmethyl-4-oxo-5,6,7,8-tetrahydro-4H-9-thia-1,4a,7-triaza-fluorene-3-carbonyl)-amino]-acetic acid]
fold induction at 200 µM (Homo sapiens, Hep3B, 16 h): 2 to 4

C[C@@H](NC(=O)c1c(O)nc2sc3c(n2c1=O)CCC(C)(C)C3)C(=O)O [Compound 44, 2-[(2-Hydroxy-7,7-dimethyl-4-oxo-5,6,7,8-tetrahydro-4H-9-thia-1,4a-diaza-fluorene-3-carbonyl)-amino]-propionic acid (D-isomer)]
fold induction at 200 µM (Homo sapiens, Hep3B, 16 h): < 2

O=C(O)CNC(=O)c1c(O)nc2sc3c(n2c1=O)CCN(S(=O)(=O)c1ccc(Cl)s1)C3 [Compound 17, {[7-(5-Chloro-thiophene-2-sulfonyl)-2-hydroxy-4-oxo-5,6,7,8-tetrahydro-4H-9-thia-1,4a,7-triaza-fluorene-3-carbonyl]-amino}-acetic acid]
fold induction at 200 µM (Homo sapiens, Hep3B, 16 h): 2 to 4

CC1(C)CCc2c(sc3nc(O)c(C(=O)NCC(=O)O)c(=O)n23)C1 [Compound 80, [(2-Hydroxy-7,7-dimethyl-4-oxo-5,6,7,8-tetrahydro-4H-9-thia-1,4a-diaza-fluorene-3-carbonyl)-amino]-acetic acid, Disodium salt]
EPO fold induction (200 uM, Disodium salt, 960 min): ++++ (++++ indicates 9-16fold)
